Data: patent US20150359867A1, “OVARIAN CANCER VACCINES AND VACCINATION METHODS” (IMMUNOCELLULAR THERAPEUTICS, LTD., priority 2013, published 2015)

These sequences were tested on T2 cells pulsed with CD133 HLA-A2 peptides (assay: IFN-γ ELISPOT assay of antigen-specific T cell response). Details: 1×10^5 CTL co-cultured with 7.5×10^4 T2 cells pulsed with 10 μg/ml of peptides, 20 hours; FIG. 3.
Format: cell-based, human
Experimental: To test this hypothesis, effector CD8^+′ T cells were isolated and co-cultured with HLA-A2+ DC pulsed with CD133 peptides to induce antigen-specific CTLs. Antigens-specific T cell responses were evaluated by an IFN-γ ELISPOT assay.
Human monocyte-derived DC was generated using previously described methods. Briefly, monocytes were isolated from PBMC by magnetic immunoselection using EasySep human monocyte enrichment kit (Stem Cell Technologies) in accordance with the manufacturer's instructions and then cultured at […] in 20 ml of GMP CellGenix DC serum-free medium (Cat#20801-0500, Cellgenix) supplemented with 1000 unit/ml of recombinant human GM-CSF (Cat#AF-300-03, Peprotech, Inc) and recombinant human IL-4(Cat#AF-200-04, Peprotech, Inc). Cells were harvested after 3 or 6 days of culture. The DCs were washed and plated in 6-well plates at a concentration of 5×10^6 cells/well IFN-γ (1000 unit/ml) and monophosphoryl lipid A (MPLA, 20-50 μg/ml) was added into the wells to mature the DC for 24 hr or 48 hrs. Prior to some assays, DC was frozen and stored into liquid nitrogen.
In order to evaluate antigen-specific immune responses, CD8^+ T cells were isolated from fresh or frozen apheresis by positive selection using Dynabeads® CD8 Positive Isolation Kit (Life Technologies, Grand Island, N.Y.) and co-cultured with autologous mDC for four weeks. DCs were added weekly. Briefly, mDC was pulsed with synthetic peptides ([…]) for 6-8 hours at 37° C., and then treated with 20 μg/ml Mitomycin C (Sigma-Aldrich, St. Louis, Mo.) for 25 min at 37° C. and 5% CO2. […]
Antigen-specific immune responses were evaluated by the IFN-γ Elispot kit (BD Biosciences) following previously described methods. […] The colored spots, representing cytokine-producing cells, were counted under a dissecting microscope. The results were evaluated by an automated ELISPOT reader system using KS ELISPOT 4.3 software.
In the case of “FLLPALIFAV (listed as Homo sapiens) [CD133p804, CD133 HLA-A2 peptide, position 804-813]”, the “antigen-specific T cell response: recognition of peptide-pulsed T2 cells by peptide-specific CTLs (IFN-γ ELISPOT)” value (shortened to “antigen-specific T cell response”) is reported as “can efficiently recognize T2 pulsed with these antigens and boost the T cell immune response”. With “ILSAFSVYV (listed as Homo sapiens) [CD133p405, CD133 HLA-A2 peptide, position 405-413]” the “antigen-specific T cell response” value was “can efficiently recognize T2 pulsed with these antigens and boost the T cell immune response”. “YLQWIEFSI (listed as Homo sapiens) [CD133p753, CD133 HLA-A2 peptide]” was tested, and the “antigen-specific T cell response” value was “can efficiently recognize T2 pulsed with these antigens and boost the T cell immune response”.
